Publication PMC12166061, “Crystallographic fragment screening reveals ligand hotspots in TRIM21 PRY-SPRY domain” (Communications Chemistry, 2025)
Where two headings read alike, the source gives them in different places.

Assays:
Assay type in all cases: binding
His-mTRIM21 PRYSPRY = molecular target: T1, His-mTRIM21 PRYSPRY (Mus musculus, UniProt Q62191); test: SPR fragment screening and dose response, mouse TRIM21 PRY-SPRY
T1 construct: mouse TRIM21 PRY-SPRY domain (residues V291-M470, UniProt-ID: Q62191); made in house; host or cells: E. coli BL21(DE3)
T1 sequence (Q62191 291-470): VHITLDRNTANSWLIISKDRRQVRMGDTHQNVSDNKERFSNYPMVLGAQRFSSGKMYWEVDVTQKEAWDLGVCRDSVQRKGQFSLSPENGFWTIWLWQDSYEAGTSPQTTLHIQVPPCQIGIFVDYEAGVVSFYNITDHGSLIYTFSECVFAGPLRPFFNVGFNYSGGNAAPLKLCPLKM
Description: (§1) His-mTRIM21 PRYSPRY and His-SUMO-hTRIM21 PRY-SPRY were immobilized onto flow channels (FC) FC2, FC3, and FC4 of a Series S sensor chip NTA (Cytiva). […] Proteins (10–20 µg mL^−1 in HBS-P+) were injected at 10 µL min^−1 to achieve response levels of 3500–4300 RU for mTRIM21 and 3600–4000 RU for hTRIM21. Flow channel 1 (FC1) was used as a reference surface. Surface deactivation and nickel stripping were achieved using 1 M ethanolamine and 350 mM ethylenediaminetetraacetic acid (EDTA), respectively.
(§2) Fragment screening was conducted by injecting 500 µM fragments diluted in running buffer (HBS-P+ with 1 mM TCEP and 2% (v/v) dimethyl sulfoxide (DMSO)) over all flow-channels for 30 s at 30 µL/min^−1. To account for surface drift, 50 µM of a control compound (Suramin) was injected every 15 fragment injections, and blank injections were performed every 5 fragments. Responses were analyzed by blank subtraction, reference subtraction (FC1), solvent correction, molecular weight adjustment, and drift correction using Biacore T200 Evaluation Software v3.2.1. The binding threshold for fragment hits was set based on the Suramin-binding response level.
The data was solvent-corrected, reference-subtracted (FC1), and blank-subtracted using the T200 Evaluation Software v3.2.1. Sensorgrams were subsequently replotted using Graphpad v.9 software.

[1] = molecular target: T2, murine TRIM21 PRY-SPRY domain (Mus musculus, UniProt Q62191); test: Differential scanning fluorimetry (DSF, ΔTm), mouse TRIM21 PRY-SPRY domain
T2 construct: mouse TRIM21 PRY-SPRY domain (residues V291-M470, UniProt-ID: Q62191); made in house; host or cells: E. coli BL21(DE3)
T2 sequence (Q62191 291-470): T1 sequence (Q62191 291-470)
Description: (§3) Briefly, recombinant murine and human TRIM21 PRY-SPRY domain at a concentration of 8 μM were mixed with 2 mM compound in their respective SEC buffer. SYPRO Orange (5000×, Invitrogen) was added as a fluorescence probe (1 µl per mL). Subsequently, temperature-dependent protein unfolding profiles were measured using the QuantStudio™ 5 realtime PCR machine (Thermo Fisher). Excitation and emission filters were set to 465 nm and 590 nm, respectively. The temperature was raised with a step rate of 3 °C per minute. Data points were analysed with the internal software (Thermal Shift SoftwareTM Version 1.4, Thermo Fisher) using the Boltzmann equation to determine the inflection point of the transition curve.

[2] = molecular target: T3, His-SUMO-hTRIM21 PRY-SPRY (Homo sapiens, UniProt P19474); test: SPR fragment screening, human TRIM21 PRY-SPRY
T3 construct: Human TRIM21 PRY-SPRY domain (residues V287-I465, UniProt-ID: P19474); made in house; host or cells: E. coli BL21(DE3)
T3 sequence (P19474 287-465): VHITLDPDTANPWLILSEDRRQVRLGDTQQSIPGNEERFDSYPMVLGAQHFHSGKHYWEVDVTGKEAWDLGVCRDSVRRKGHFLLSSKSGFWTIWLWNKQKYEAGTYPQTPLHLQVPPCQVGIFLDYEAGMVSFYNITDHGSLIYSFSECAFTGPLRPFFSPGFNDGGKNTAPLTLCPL
Description: as §1, §2

[3] = molecular target: T4, human TRIM21 PRY-SPRY domain (Homo sapiens, UniProt P19474); test: Differential scanning fluorimetry (DSF, ΔTm), human TRIM21 PRY-SPRY domain
T4 construct: Human TRIM21 PRY-SPRY domain (residues V287-I465, UniProt-ID: P19474); His6 (N, cleaved yes); SUMO (N, cleaved yes); made in house; host or cells: E. coli BL21(DE3)
T4 sequence (P19474 287-465): as above
Description: as §3

[4] = single dose 500 µM fragment, relative response, suramin reference threshold 100 relative RU

Compound | SPR mTRIM21 (Response) (His-mTRIM21 PRYSPRY; [4]) | Tm-shift mTRIM21 ([1]; 2 mM compound, 8 μM protein) [°C] | SPR hTRIM21 (Response) [2, 4] | Tm-Shift hTRIM21 ([3]; 2 mM compound, 8 μM protein) [°C] | SPR mTRIM21 (Response) (His-mTRIM21 PRYSPRY) | Tm-shift mTRIM21 [1] [°C] | SPR hTRIM21 (Response) [2] | Tm-Shift hTRIM21 [3] [°C]
Cc1c(C(C)NS(C)(=O)=O)cnn1C (centres unmarked) [Fragment Z369263636] | 35.15 | -0.1 | 36.54 | 0.1 | – | – | – | –
CCn1cc(NC(=O)C2CCC2)cn1 [Fragment Z373768900] | – | – | – | – | 20.02 | -0.4 | 21.88 | -0.3
CC(=O)NCc1ccnc(N(C)C)c1 [Fragment Z374427992] | 50.3 | -0.1 | 46.45 | -0.1 | – | – | – | –
CCC(=O)N1CCCC(NS(C)(=O)=O)C1 (centres unmarked) [Fragment Z405825414] | 27.91 | -0.2 | 27.61 | 0 | – | – | – | –
CCOc1ccccc1N1CCNCC1.Cl [Fragment Z425387594] | – | – | – | – | 98.47 | -0.1 | 61.98 | 0
CC(=O)N1CCCC(CNS(C)(=O)=O)C1 (centres unmarked) [Fragment Z438096750] | 42.61 | 0 | 40.93 | -0.2 | – | – | – | –
O=C(c1csnn1)N1CCOCC1 [Fragment Z741055844] | 32.54 | -0.2 | 28.98 | -0.1 | – | – | – | –
CNS(=O)(=O)Cc1cc(C)on1 [Fragment Z763030030] | – | – | – | – | 42.23 | -0.2 | 44.17 | -0.1
CC1CN(C(=O)c2cnsn2)C(C)CO1 (centres unmarked) [Fragment Z768399682] | 24.2 | -0.3 | 20.05 | 0 | – | – | – | –
CCOC(=O)CN1CCS(=O)(=O)CC1 [Fragment Z793778804] | 30.52 | 0 | 29.17 | 0.1 | – | – | – | –
O=C(O)COCc1ccccc1 [Fragment Z993967070] | – | – | – | – | 63.84 | -0.3 | 56.18 | 0
CN1CCOC(CNc2nccs2)C1 (centres unmarked) [Fragment Z1002247062] | 105 | -0.1 | 20.86 | -0.2 | – | – | – | –
NS(=O)(=O)c1ccccc1OC(F)F [Fragment Z1003146540] | 35.49 | -0.1 | 38.84 | 0.5 | – | – | – | –
Cc1cc(Cn2nc(C)ccc2=O)on1 [Fragment Z1079512010] | 50.4 | -0.3 | 45.75 | -0.1 | – | – | – | –
CCc1nc(Cn2ccccc2=O)no1 [Fragment Z1162778919] | 48.28 | -0.2 | 44.97 | -0.1 | – | – | – | –
CN1CCC(Oc2cccc(F)c2)C1=O (centres unmarked) [Fragment Z1217960891] | 74.94 | -0.4 | 55.59 | -0.4 | – | – | – | –
CN(C)C(=O)c1ccc2c(c1)CCCN2 [Fragment Z1222331430] | – | – | – | – | 51.36 | -0.2 | 70.74 | -0.2
CN(C)c1ccncc1 [Fragment Z1245793018] | 131.3 | 0.1 | 47.83 | 0 | – | – | – | –
CCC(NC)c1ccncc1 (centres unmarked) [Fragment Z1250132788] | 53.11 | 0 | 50.74 | -0.1 | – | – | – | –
Cl.O=C(c1cn[nH]c1)N1CCCC1 [Fragment Z1266933824] | – | – | – | – | 127.7 | -0.3 | 193.6 | -0.1
CCc1ncc(CNC)s1 [Fragment Z1267773633] | 58.5 | -0.4 | 45.3 | -0.4 | – | – | – | –
c1cc(NCC2CCCO2)ccn1 (centres unmarked) [Fragment Z1267882044] | 85.46 | 0 | 39.64 | -0.1 | – | – | – | –
CC(=O)N1CCCC2(CCCCCC2)C1 [Fragment Z1275599911] | 32.73 | -1.3 | 30.21 | -0.9 | – | – | – | –
CC#CCN(C)C1CCS(=O)(=O)CC1 [Fragment Z1318110042] | 68.46 | 0.1 | 20.83 | 0 | – | – | – | –
COC1CN(S(=O)(=O)N2CCCC2)C1 [Fragment Z1343518214] | – | – | – | – | 38.32 | -0.1 | 34.32 | 0.2
CC(=O)N1Cc2ccc(N)cc2C1 [Fragment Z1354416068] | 104.9 | 0 | 107.4 | 0.1 | – | – | – | –
c1cnc(N2CCC3(CCOC3)C2)cn1 (centres unmarked) [Fragment Z1401276297] | 374.2 | 0.2 | 640.3 | 0.6 | – | – | – | –
CC(CS(N)(=O)=O)c1ccccc1 (centres unmarked) [Fragment Z1407673036] | 43.51 | -0.3 | 47.04 | -0.4 | – | – | – | –
CS(=O)(=O)NC1CCOC2(CCCC2)C1 (centres unmarked) [Fragment Z1446981563] | 27.71 | -0.4 | 28.35 | -0.1 | – | – | – | –
